Test results taken from patent US20230416329A1, “A PEPTIDE WITH DISULFIDE BONDS AND INHIBITORY ACTIVITY AGAINST SERINE PROTEASES, DERIVED HYBRID PEPTIDES THEREOF, AND USES THEREOF” (INSTITUTE OF MATERIA MEDICA , CHINESE ACADEMY OF MEDICAL …, priority 2020, published 2023).
Bridge positions count the residues as written; N and C are the ends. Ends that are not written are not given here.

Assays:
[1] = target: T1, interaction of PCSK9-LDLR (Homo sapiens, UniProt Q8NBP7); assay: PCSK9-LDLR in vitro binding assay (inhibitory rate); details: for inhibitory activity on the interaction between PCSK9 and LDLR (in words): in vitro
T1 construct: purchased MBL Company, Beijing, China CY-8150
Method: Polypeptide PCSK9_1-14 (SEQ ID NOs: 210-223) is dissolved in pure water or DMSO. 85 μL reaction buffer, 5 μL 1 mM polypeptide sample and 10 μL 750 ng/mL PCSK9 protein was pre-incubated at room temperature for 20 minutes before being added to a 96 well plate. The OD450/540 nm value was measured according to the instructions of the PCSK9-LDLR in Vitro Binding Assay Kit (CY-8150, MBL Company, Beijing, China). Solvent control: replace polypeptide with 5 μL solvent. In 100 μL reaction system, the final concentration of the polypeptide and PCSK9 is 50 μM and 75 ng/mL, respectively.
Inhibition rate of polypeptide (%)=(OD450/540 nm(solvent control)−OD450/540 nm (sample))/OD450/540 nm(solvent control)×100

[2] = test system: P407-induced hyperlipidemia mice; assay: Subcutaneous injection of PCSK9 inhibitory peptide, serum total cholesterol in P407-induced hyperlipidemia mice; assay type: in vivo, mouse; details: for serum total cholesterol (TC) level after subcutaneous injection (in words): 2 μmol/kg single s.c., P407-induced hyperlipidemia mice; for TC 15 min / TC 30 min / TC 60 min / TC 90 min / TC 120 min: serum, subcutaneous 2 μmol/kg, mean ± sd; for TC 15 min: 15 min after administration; for TC 30 min: 30 min after administration; for TC 60 min: 60 min after administration; for TC 90 min: 90 min after administration; for TC 120 min: 120 min after administration
Method: The experimental peptide sample was prepared using PEG400 with a final concentration of […], and the final concentration of PEG400 is 20% (w/v). Normal ICR mice were fasted overnight with water ad libitum. The next day, all of the mice were randomly divided into model control group (Con) and polypeptide administration group (2 μmol/kg) according to body weight. Then, all of the mice were intraperitoneally injected with P407 (500 mg/kg) and fed with feed 2 hours later. Six mice were taken as a normal control group (Nor). After 24 hours, the mice in Con were subcutaneously injected with saline containing 20% PEG400, and the mice in the treatment group were given peptides. Then, the blood was taken at different time points after administration to determine the serum total cholesterol (TC) level. In consideration of the complexity of factors affecting serum LDL-C levels, especially the differences between single and long-term administration, the in vivo activity of PCSK9 inhibitory peptide is mainly observed for changes in serum TC levels.

Substance: Trp-Glu-Glu-Ala-Leu-Asp-Trp-Val-Gly-Ile-Cys-Thr-Ala-Ser-Ile-Pro-Pro-Ile-Cys-Gln-Gly-Thr-Val-Phe-Thr-Ser (WEEALDWVGICTASIPPICQGTVFTS; disulfide 11-19 (inferred)) [PCSK9_5EC]
- inhibitory activity on the interaction between PCSK9 and LDLR (in words) [1]: good inhibitory activity on the interaction between PCSK9 and LDLR
- inhibitory activity on the interaction between PCSK9 and LDLR (in words) ([1]; listed as SEQ ID NO: 229): good inhibitory effects in vitro
- serum total cholesterol (TC) level after subcutaneous injection (in words) [2]: reduced serum TC level
- serum total cholesterol (TC) level after subcutaneous injection (in words) ([2]; listed as SEQ ID NO: 229): excellent lowering lipid (total cholesterol) activities in vivo
- TC 15 min [2]: 2669 ± 520 µg/mL
- TC 30 min [2]: 2231 ± 795 µg/mL
- TC 60 min [2]: 2577 ± 466 µg/mL
- TC 90 min [2]: 2532 ± 425 µg/mL

Substance: ICTASIPPICQGTVFTSWEEALDWV (cysteine pairing not given here)
- inhibitory activity on the interaction between PCSK9 and LDLR (in words) [1]: good inhibitory activity on the interaction between PCSK9 and LDLR
- inhibitory activity on the interaction between PCSK9 and LDLR (in words) ([1]; listed as SEQ ID NO: 227): good inhibitory effects in vitro
- TC 15 min [2]: 2885 ± 769 µg/mL
- TC 30 min [2]: 2673 ± 724 µg/mL
- TC 60 min [2]: 2695 ± 699 µg/mL
- TC 90 min [2]: 2605 ± 759 µg/mL

Substance: Phe-Cys-Thr-Tyr-Ser-Ile-Pro-Pro-Gln-Cys-Tyr-Gly-Gly-Thr-Val-Phe-Thr-Ser-Trp-Glu-Glu-Ala-Leu-Asp-Trp-Val (FCTYSIPPQCYGGTVFTSWEEALDWV; disulfide 2-10 (inferred)) [PCSK9_3CH]
- inhibitory activity on the interaction between PCSK9 and LDLR (in words) [1]: good inhibitory activity on the interaction between PCSK9 and LDLR
- inhibitory activity on the interaction between PCSK9 and LDLR (in words) ([1]; listed as SEQ ID NO: 226): good inhibitory effects in vitro
- TC 15 min [2]: 3509 ± 1031 µg/mL
- TC 30 min [2]: 3828 ± 774 µg/mL
- TC 60 min [2]: 3930 ± 1509 µg/mL
- TC 90 min [2]: 3435 ± 838 µg/mL

Substance: Thr-Val-Phe-Thr-Ser-Gly-Arg-Cys-Thr-Lys-Ser-Ile-Pro-Pro-Ile-Cys-Phe-Trp-Glu-Glu-Tyr-Leu-Asp-Trp-Val (TVFTSGRCTKSIPPICFWEEYLDWV; disulfide 8-16 (inferred)) [PCSK9_9]
- inhibitory activity on the interaction between PCSK9 and LDLR (in words) [1]: good inhibitory activity on the interaction between PCSK9 and LDLR
- inhibitory activity on the interaction between PCSK9 and LDLR (in words) ([1]; listed as SEQ ID NO: 218): good inhibitory effects in vitro
- serum total cholesterol (TC) level after subcutaneous injection (in words) [2]: reduced serum TC level
- serum total cholesterol (TC) level after subcutaneous injection (in words) ([2]; listed as SEQ ID NO: 218): excellent lowering lipid (total cholesterol) activities in vivo
- TC 30 min [2]: 3143 ± 842 µg/mL
- TC 60 min [2]: 3516 ± 914 µg/mL
- TC 90 min [2]: 3409 ± 970 µg/mL
- TC 120 min [2]: 327.4 ± 90.4 mg/dL

Substance: Trp-Glu-Glu-Ala-Leu-Asp-Trp-Val-Gly-Phe-Cys-Thr-Tyr-Ser-Ile-Pro-Pro-Gln-Cys-Tyr-Gly-Thr-Val-Phe-Thr-Ser (WEEALDWVGFCTYSIPPQCYGTVFTS; disulfide 11-19 (inferred)) [PCSK9_5CH]
- inhibitory activity on the interaction between PCSK9 and LDLR (in words) [1]: good inhibitory activity on the interaction between PCSK9 and LDLR
- inhibitory activity on the interaction between PCSK9 and LDLR (in words) ([1]; listed as SEQ ID NO: 228): good inhibitory effects in vitro
- TC 15 min [2]: 3002 ± 716 µg/mL
- TC 30 min [2]: 3067 ± 685 µg/mL
- TC 60 min [2]: 3023 ± 1035 µg/mL
- TC 90 min [2]: 2705 ± 741 µg/mL

Substance: CGRATKSIPPICFGTVFTSWEEALDWV (cysteine pairing not given here)
- inhibitory activity on the interaction between PCSK9 and LDLR (in words) [1]: good inhibitory activity on the interaction between PCSK9 and LDLR
- inhibitory activity on the interaction between PCSK9 and LDLR (in words) ([1]; listed as SEQ ID NO: 212): good inhibitory effects in vitro
- TC 15 min [2]: 3466 ± 662 µg/mL
- TC 30 min [2]: 3490 ± 741 µg/mL
- TC 60 min [2]: 3294 ± 649 µg/mL
- TC 90 min [2]: 3265 ± 678 µg/mL

Substance: Thr-Val-Phe-Thr-Ser-Trp-Glu-Glu-Ala-Leu-Asp-Trp-Val-Gly-Phe-Cys-Thr-Tyr-Ser-Ile-Pro-Pro-Gln-Cys-Tyr-Gly (TVFTSWEEALDWVGFCTYSIPPQCYG-OH; disulfide 16-24 (inferred)) [PCSK9_2CH]
- inhibitory activity on the interaction between PCSK9 and LDLR (in words) [1]: good inhibitory activity on the interaction between PCSK9 and LDLR
- inhibitory activity on the interaction between PCSK9 and LDLR (in words) ([1]; listed as SEQ ID NO: 224): good inhibitory effects in vitro
- TC 15 min [2]: 2772 ± 762 µg/mL
- TC 30 min [2]: 2586 ± 700 µg/mL
- TC 60 min [2]: 2737 ± 762 µg/mL
- TC 90 min [2]: 2489 ± 760 µg/mL

Substance: Thr-Val-Phe-Thr-Ser-Gly-Ile-Cys-Thr-Ala-Ser-Ile-Pro-Pro-Ile-Cys-Gln-Trp-Glu-Glu-Tyr-Leu-Asp-Trp-Val (TVFTSGICTASIPPICQWEEYLDWV; disulfide 8-16 (inferred)) [PCSK9_9EC]
- inhibitory activity on the interaction between PCSK9 and LDLR (in words) [1]: good inhibitory activity on the interaction between PCSK9 and LDLR
- inhibitory activity on the interaction between PCSK9 and LDLR (in words) ([1]; listed as SEQ ID NO: 233): good inhibitory effects in vitro
- TC 15 min [2]: 2789 ± 797 µg/mL
- TC 30 min [2]: 2744 ± 909 µg/mL
- TC 60 min [2]: 2676 ± 783 µg/mL
- TC 90 min [2]: 2657 ± 838 µg/mL

Substance: Thr-Val-Phe-Thr-Ser-Gly-Cys-Gly-Arg-Ala-Thr-Lys-Ser-Ile-Pro-Pro-Ile-Cys-Phe-Trp-Glu-Glu-Tyr-Leu-Asp-Trp-Val (TVFTSGCGRATKSIPPICFWEEYLDWV; disulfide 7-18 (inferred)) [PCSK9_7]
- inhibitory activity on the interaction between PCSK9 and LDLR (in words) [1]: good inhibitory activity on the interaction between PCSK9 and LDLR
- inhibitory activity on the interaction between PCSK9 and LDLR (in words) ([1]; listed as SEQ ID NO: 216): good inhibitory effects in vitro
- TC 30 min [2]: 3398 ± 990 µg/mL
- TC 60 min [2]: 3618 ± 954 µg/mL
- TC 90 min [2]: 3461 ± 937 µg/mL
- TC 120 min [2]: 337.6 ± 95.8 mg/dL

Substance: Trp-Glu-Glu-Ala-Leu-Asp-Trp-Val-Cys-Gly-Arg-Ala-Thr-Lys-Ser-Ile-Pro-Pro-Ile-Cys-Phe-Gly-Thr-Val-Phe-Thr-Ser (WEEALDWVCGRATKSIPPICFGTVFTS; disulfide 9-20 (inferred)) [PCSK9_5]
- inhibitory activity on the interaction between PCSK9 and LDLR (in words) [1]: good inhibitory activity on the interaction between PCSK9 and LDLR
- inhibitory activity on the interaction between PCSK9 and LDLR (in words) ([1]; listed as SEQ ID NO: 214): good inhibitory effects in vitro
- serum total cholesterol (TC) level after subcutaneous injection (in words) [2]: reduced serum TC level
- serum total cholesterol (TC) level after subcutaneous injection (in words) ([2]; listed as SEQ ID NO: 214): excellent lowering lipid (total cholesterol) activities in vivo
- TC 15 min [2]: 3050 ± 524 µg/mL
- TC 30 min [2]: 3236 ± 542 µg/mL
- TC 60 min [2]: 3089 ± 523 µg/mL
- TC 90 min [2]: 2980 ± 591 µg/mL

Substance: PCSK9_13: Pep2-8 analogue of Table 23 (GTNEALDNNCGRATKSIPPICFTVFTS; disulfide 10-21 (inferred))
- Inhibitory rate on the interaction of PCSK9-LDLR ([1]; sample 50 μM, PCSK9 75 ng/mL): 15.8 ± 10.1%

Substance: Thr-Val-Phe-Thr-Ser-Trp-Glu-Glu-Ala-Leu-Asp-Trp-Val-Cys-Gly-Arg-Ala-Thr-Lys-Ser-Ile-Pro-Pro-Ile-Cys-Phe (TVFTSWEEALDWVCGRATKSIPPICF; disulfide 14-25 (inferred)) [PCSK9_2]
- inhibitory activity on the interaction between PCSK9 and LDLR (in words) [1]: good inhibitory activity on the interaction between PCSK9 and LDLR
- inhibitory activity on the interaction between PCSK9 and LDLR (in words) ([1]; listed as SEQ ID NO: 211): good inhibitory effects in vitro
- TC 30 min [2]: 3079 ± 1081 µg/mL
- TC 60 min [2]: 3178 ± 1039 µg/mL
- TC 90 min [2]: 3078 ± 1044 µg/mL
- TC 120 min [2]: 295.5 ± 95.4 mg/dL

Substance: PCSK9_8: Pep2-8 analogue containing the anti-trypsin peptide scaffold BT9 (Table 23) (TVFTSGCGRATKSIPPICFSWEEYLDWV; disulfide 7-18 (inferred))
- inhibitory activity on the interaction between PCSK9 and LDLR (in words) [1]: good inhibitory activity on the interaction between PCSK9 and LDLR
- inhibitory activity on the interaction between PCSK9 and LDLR (in words) ([1]; listed as SEQ ID NO: 217): good inhibitory effects in vitro
- TC 15 min [2]: 2269 ± 489 µg/mL
- TC 30 min [2]: 2216 ± 465 µg/mL
- TC 60 min [2]: 2074 ± 470 µg/mL
- TC 90 min [2]: 2037 ± 509 µg/mL
